According to US20120213707A1, “Riboflavin Based Aerosol and Use as Placebo in Trials” (MPEX PHARMACEUTICALS, INC., priority 2009, published 2012):
Where two headings read alike, the source gives them in different places.

Assays:
[1] = type: in vivo, rat (rattus norvegicus)
Description: The objective of the study was to determine the toxicity and toxicokinetic profile of the test article, riboflavin 5′-phosphate, following inhalation (nose-only) administration to rats for 28 consecutive days.
Treatment: Daily inhalation by nose-only exposure for 60 minutes. Duration of treatment: 28 Days.
Assessments of mortality, clinical signs, body weights, food consumption, ophthalmology, functional observation battery and clinical chemistry, hematology, coagulation and urinalysis were performed. Plasma prepared from blood samples were collected from designated animals on the first and last days of the study and analyzed for Riboflavin 5′-phosphate content and toxicokinetic evaluation. All toxicology (main study) animals were euthanized upon completion of the 28-day treatment period and selected tissues were retained, weighed and examined microscopically. Toxicokinetic animals were euthanized following completion of blood sampling and were not subjected to necropsy examination or tissue collection. The following tables summarize tests, methods, and abbreviations used in hematology tests (Table 3), coagulation tests (Table 4), clinical chemistry tests (Table 5), and urinalysis (Table 6).

[2] = system: Beagle dogs; assay: 28-day aerosolized liquid inhalation (oronasal) toxicity study in Beagle dogs; type: in vivo
Text: The objective of the study was to determine the toxicity and toxicokinetic profile of the test article, Riboflavin 5′-phosphate, following inhalation (oronasal) administration to dogs for 28 consecutive days.
Test article: riboflavin 5′-phosphate sodium salt hydrate; alternate identity: vitamin B2 phosphate; description: yellow crystals; potency: 74%. Vehicle article: saline (0.9% (w/v) NaCl for injection); description: clear colorless solution. Exposure method: inhalation by oronasal face mask exposure.
The test (0.5 mg/mL, 2.0 mg/mL, 5.0 mg/mL) and/or vehicle control formulations (0 mg/mL) for each group were prepared fresh daily on each day by dissolving the test article in saline. All prepared test article formulations were protected from light and kept at room temperature (RT).
Duration of treatment: 28 days. Test system: Dog (Canis familiaris); strain: Beagle.
(§1) The aerosol was produced by metering the flow of the test and control article formulations to 3 clinical nebulizers (Sidestream). The aerosol produced was discharged through a 40 mm diameter tube into a flow-past inhalation exposure system. The airflow rate through the exposure system was monitored and recorded manually during the aerosol generation. Airflow to the exposure system was controlled by the absolute volume of air supplying the aerosol generators using variable area flow meters. Control of the aerosol exhaust flow from the animal exposure system was achieved using an exhaust valve. The system provided a minimum of 6 L/min of aerosol to each animal exposure position and the inlet and outlet airflows were balanced to ensure that there was no dilution of the generated aerosol by air drawn from the environment. Any minor variations in flow were buffered by a balloon reservoir. An equal delivery of aerosol to each exposure position was achieved by employing a distribution network that was identical for each individual exposure position attached to the system.
Mortality checks were performed once daily during the acclimation and pre-treatment periods, and twice a day (am and pm) during the treatment period of the study.
Cage-side clinical signs (ill health, behavioral changes etc.) were recorded for all animals once daily during the acclimation period and twice daily (pre-exposure and post-exposure) during the treatment period except on detailed clinical examination days. A detailed clinical examination of each dog was performed (replacing a cage-side clinical sign observation in the morning) at least once pretreatment, one day prior to Day 1, weekly during the treatment period and before necropsy.
Body weights were recorded for all animals at least once prior to group assignment, and approximately one week prior to initiation of treatment. Body weights were recorded for all animals one day prior to Day 1 and weekly during the treatment period, as well as terminally.
Individual daily food intake was recorded for all animals during the last week of the pretreatment period and throughout the treatment period.
Funduscopic (indirect ophthalmoscopy) and biomicroscopic (slit lamp) examinations were performed for all animals, once during the pre-treatment period and during Week 4 of the treatment period.
Electrocardiograms (limb leads I, II and III, and augmented leads aVR, aVL and aVF) were obtained for all dogs once during the pre-treatment period and at least 90 minutes (between 90-120 minutes) postexposure on Days 1 and during Week 4 of the treatment period. In addition, indirect blood pressure was measured on the same occasions as ECG using a tail cuff. The tracings were assessed for gross changes indicative of cardiac electrical dysfunction and the potential presence of abnormalities involving heart rate (lead II), sinus and atrioventricular rhythm or conductivity were determined. Heart rate, PR interval, QRS duration, QT and QTc intervals values were tabulated for incorporation into the study report. […]

[3] = Aerosol particle size distribution, dog oronasal exposure system (7-Stage Mercer Cascade Impactor); type: physicochemical
Text: as §1
Determinations of aerosol concentration, particle size distribution, oxygen concentration, relative humidity and temperature were performed on test atmosphere samples collected from a representative port of the exposure system, with a collection sample flow-rate of 1 L/min. The sample flow rates were precisely controlled using variable area flow meters that were calibrated before use using a primary airflow calibrator. The absolute volume of each aerosol concentration sample was measured using a wet type gas meter.
The distribution of particle size in the generated aerosols for Groups 2 to 4 were measured weekly during the treatment period by collecting samples into a 7-Stage Mercer Cascade Impactor and the particle size of aerosolized Riboflavin 5′-phosphate was determined using a validated analytical. The distribution of particle size in the generated aerosols for Group 1 were estimated once weekly by gravimetric determination. The MMAD and the Geometric Standard Deviation (GSD) were calculated based on the results obtained from the impactor using a log-probit transformation.

[4] = female, Sprague-Dawley, rat, in vivo, 0.96 mg/kg/day
[5] = female, Sprague-Dawley, rat, in vivo, 2.4 mg/kg/day
[6] = male, Sprague-Dawley, rat, in vivo, 2.4 mg/kg/day
[7] = male, Sprague-Dawley, rat, in vivo, inhaled or intranasal, 0.96 mg/kg/day
[8] = Group 2 Low Dose, 0.5 mg/mL formulation
[9] = Group 3 Mid Dose, 2.0 mg/mL formulation
[10] = Group 4 High Dose, 5.0 mg/mL formulation

In the case of `Cc1cc2nc3c(=O)[nH]c(=O)nc-3n(C[C@H](O)[C@H](O)[C@H](O)COP(=O)(O)O)c2cc1C` [riboflavin 5′-phosphate], the “Cmax ratio (M/F)” value ([1]; both, Sprague-Dawley, rat, in vivo, 0.96 mg/kg/day) is reported as 1.59, the “AUC ratio (M/F)” value ([1]; both, Sprague-Dawley, rat, in vivo, 2.4 mg/kg/day) is reported as 1.24 and the “AUC ratio (M/F)” value [1, 4] is reported as 1.25. For the same compound, the “Cmax ratio (M/F)” value [1, 4] was 1.50, the “AUC ratio (M/F)” value [1, 5] was 0.672 and the “Cmax ratio (M/F)” value [1, 5] was 1.17. The “riboflavin concentration in plasma” value ([1]; female, Sprague-Dawley, rat, in vivo, 24 h) was 0.829 µg/mL, the Tmax of riboflavin ([1]; female, Sprague-Dawley, rat, in vivo, inhaled or intranasal, 0.96 mg/kg/day) was 0.00 h and the Tmax of riboflavin ([1]; female, Sprague-Dawley, rat, in vivo, inhaled or intranasal, 2.4 mg/kg/day) was 0.00 h. The “AUC ratio (M/F)” value [1, 6] was 0.433, the “Cmax ratio (M/F)” value [1, 6] was 0.801 and the “AUC(0-T) of riboflavin” value [1, 7] was 0.0159 µg·h/mL. For the same compound, the Tmax of riboflavin [1, 7] was 0.00 h, the Tmax of riboflavin ([1]; male, Sprague-Dawley, rat, in vivo, inhaled or intranasal, 2.4 mg/kg/day) was 0.00 h and the “gender difference in riboflavin exposure” value ([1]; rat, in vivo) was “no gender difference in riboflavin exposure”. For the same compound, the “riboflavin 5′-phosphate concentrations in plasma of treated animals” value ([1]; rat, in vivo) was “detected in only very few treated animals”, the “riboflavin concentration values, males versus females” value ([1]; rats, Day 1) was “slightly higher in males than in females” and the “No Observed Effect Level (NOEL)” value ([2]; Beagle dogs, oronasal inhalation up to 60 minutes/day, 28 consecutive days, high-dose group) was 1.341 mg/kg/day. For the same compound, the tolerability ([2]; beagle dogs, inhalation exposure 28 days) was “well tolerated”, the blood pressure ([2]; dog, in vivo) was “no changes in blood pressure that were considered related to treatment” and the clinical chemistry ([2]; dog, in vivo) was “no changes noted in clinical chemistry parameters that were considered to be treatment-related”. For the same compound, the clinical signs ([2]; dog, in vivo) was “no clinical signs related to treatment”, the coagulation times ([2]; dog, in vivo) was “unaffected by treatment” and the electrocardiogram wave forms ([2]; dog, in vivo) was “unaffected by treatment”. For the same compound, the food consumption ([2]; dog, in vivo) was “no changes noted in food consumption that were considered to be treatment-related”, the hematology ([2]; dog, in vivo) was “no changes noted in hematology parameters that were considered to be treatment-related” and the macroscopic findings ([2]; dog, in vivo) was “no macroscopic findings that were considered to be test article related”. The microscopic findings ([2]; dog, in vivo) was “no evidence of test article-related histopathological finding”, the ophthalmology ([2]; dog, in vivo) was “no ocular changes noted that were considered to be treatment-related” and the organ weights ([2]; dog, in vivo) was “slight increase in spleen weight”. The “respiratory parameters (respiratory rate, tidal volume and minute volume)” value ([2]; dog, in vivo) was “no changes in respiratory parameters evaluated”, the urinalysis ([2]; dog, in vivo) was “no changes in any of the urinalysis parameters evaluated that were considered affected by treatment” and the adverse effects ([2]; dog, in vivo, 1.34 mg/kg/day) was “no adverse effects were observed”. For the same compound, the mortality ([2]; dogs, 28 days inhalation) was “no premature deaths”, the “% of particles <3.1 μm” value [3, 8] was 91.1% and the MMAD [3, 8] was 1.1 μm. For the same compound, the “% of particles <3.1 μm” value [3, 9] was 93.3%, the MMAD [3, 9] was 1.1 μm and the “% of particles <3.1 μm” value [3, 10] was 87.2%. For the same compound, the MMAD [3, 10] was 1.2 μm.
